Measured values: ChEMBL document CHEMBL3734731 (Medchemcomm, 2015)
Numbered stars: 1 amine (or outer) side, 2 acyl side, 3 side chain; on linkers, the order of the positions; unused ones are H or OH. Square brackets hold non-standard residues; d marks the D form. Peptide text beside a SMILES is read from it. * marks the point of attachment. NMeW = CN[C@@H](Cc1c[nH]c2ccccc12)C(=O)O; X2 = NS(=O)(=O)N[C@@H](CC(=O)O)C(=O)*; NMeY = CN[C@@H](Cc1ccc(O)cc1)C(=O)O; X1 = NC(=O)N[C@@H](CC(=O)O)C(=O)*; NMeF = CN[C@@H](Cc1ccccc1)C(=O)O; NMeI = CC[C@H](C)[C@H](NC)C(=O)O; Aad = N[C@@H](CCCC(=O)O)C(=O)O; NMeD = CN[C@@H](CC(=O)O)C(=O)O; Methoxyoxalyl = COC(=O)C(=O)*; NMeL = CN[C@@H](CC(C)C)C(=O)O; Suc = O=C(CCC(=O)[*:2])[*:1]; NMeV = CN[C@H](C(=O)O)C(C)C; Oxamoyl = NC(=O)C(=O)*; CONHOH = O=C(NO)*

Legend:
Neuromedin-K receptor [1] = target: T1, Neuromedin-K receptor (Homo sapiens, UniProt P29371); assay: Displacement of ([125I]His3-MePhe7)-NKB from NK3 receptor (unknown origin) expressed in CHO cells by scintillation counter; format: cell-based
T1 sequence (P29371 whole entry): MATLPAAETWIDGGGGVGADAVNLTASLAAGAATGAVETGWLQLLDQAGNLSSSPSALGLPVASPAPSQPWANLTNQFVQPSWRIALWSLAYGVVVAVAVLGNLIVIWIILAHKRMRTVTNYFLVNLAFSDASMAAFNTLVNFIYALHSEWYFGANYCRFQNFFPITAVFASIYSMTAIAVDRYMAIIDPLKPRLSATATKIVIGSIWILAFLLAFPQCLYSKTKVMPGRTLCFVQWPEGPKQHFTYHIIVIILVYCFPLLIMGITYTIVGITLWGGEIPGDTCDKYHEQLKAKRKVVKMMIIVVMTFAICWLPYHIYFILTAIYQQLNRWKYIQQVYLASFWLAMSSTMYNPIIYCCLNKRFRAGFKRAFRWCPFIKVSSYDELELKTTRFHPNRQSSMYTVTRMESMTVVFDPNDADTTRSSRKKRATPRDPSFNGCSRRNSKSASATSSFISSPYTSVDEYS

Neuromedin-K receptor [2] = target: T1, Neuromedin-K receptor; assay: Agonist activity at human NK3 receptor expressed in CHO cells assessed as calcium influx relative to 100 nM senktide; format: functional, cell-based
Substance-P receptor = Substance-P receptor (Homo sapiens, UniProt P25103); assay: Displacement of [125I]-BH-SP from NK1 receptor (unknown origin) expressed in CHO cells by scintillation counter; format: cell-based
Sequence of Substance-P receptor (P25103 whole entry): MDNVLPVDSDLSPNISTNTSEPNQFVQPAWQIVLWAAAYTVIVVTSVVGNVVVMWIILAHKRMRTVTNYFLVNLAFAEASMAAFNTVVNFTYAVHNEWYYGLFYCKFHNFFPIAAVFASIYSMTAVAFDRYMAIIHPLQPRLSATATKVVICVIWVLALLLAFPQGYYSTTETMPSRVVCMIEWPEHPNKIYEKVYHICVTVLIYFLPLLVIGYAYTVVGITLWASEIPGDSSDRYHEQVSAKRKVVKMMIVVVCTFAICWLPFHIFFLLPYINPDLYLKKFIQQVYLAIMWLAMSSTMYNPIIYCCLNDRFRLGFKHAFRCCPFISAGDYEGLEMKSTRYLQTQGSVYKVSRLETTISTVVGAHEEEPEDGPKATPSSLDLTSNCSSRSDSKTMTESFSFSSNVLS

Substance-K receptor = target: T2, Substance-K receptor (Homo sapiens, UniProt P21452); assay: Displacement of [125I]-NKA from NK2 receptor (unknown origin) expressed in CHO cells by scintillation counter; format: cell-based
T2 sequence (P21452 whole entry): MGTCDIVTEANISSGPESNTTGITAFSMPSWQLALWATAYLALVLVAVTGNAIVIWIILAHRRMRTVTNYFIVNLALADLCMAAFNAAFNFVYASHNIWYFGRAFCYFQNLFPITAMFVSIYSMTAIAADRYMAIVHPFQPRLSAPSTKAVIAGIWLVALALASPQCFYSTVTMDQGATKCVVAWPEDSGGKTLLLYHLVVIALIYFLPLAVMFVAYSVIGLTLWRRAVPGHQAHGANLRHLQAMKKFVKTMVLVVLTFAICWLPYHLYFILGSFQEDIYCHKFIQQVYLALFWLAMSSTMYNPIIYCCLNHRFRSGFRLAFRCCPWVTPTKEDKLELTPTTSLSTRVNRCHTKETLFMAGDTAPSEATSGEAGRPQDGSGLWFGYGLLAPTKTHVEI

[3] = target: T3, Neuromedin-K receptor (Homo sapiens) (UniProt P29371); assay: Potency index, ratio of EC50 for […] to EC50 for test compound for agonist activity at human NK3 receptor
T3 sequence (whole entry): T1 sequence (P29371 whole entry)

| SMILES | IC50 (Neuromedin-K receptor [1]) [nM] | EC50 (Neuromedin-K receptor [2]) [nM] | IC50 (Substance-P receptor) [nM] | IC50 (Substance-K receptor) [nM] | Ratio EC50 [3] |
| --- | --- | --- | --- | --- | --- |
| CC[C@H](C)[C@@H](C(=O)NCC(=O)N[C@@H](CC(C)C)C(=O)N[C@@H](CCSC)C(N)=O)N(C)C(=O)[C@H](Cc1ccccc1)NC(=O)[C@H](CC(=O)O)NC(=O)CCC(=O)O (Suc-DF[NMeI]GLM-NH2) | 91 | 0.05 | > 10000 | > 10000 |  |
| CSCC[C@H](NC(=O)[C@H](CC(C)C)NC(=O)CNC(=O)[C@H](CC(=O)O)N(C)C(=O)[C@H](Cc1ccccc1)NC(=O)[C@H](CC(=O)O)NC(=O)CCC(=O)O)C(N)=O (Suc-DF[NMeD]GLM-NH2) | > 10000 |  |  |  |  |
| CSCC[C@H](NC(=O)[C@H](CC(C)C)NC(=O)CNC(=O)[C@H](Cc1ccccc1)N(C)C(=O)[C@H](Cc1ccccc1)NC(=O)[C@H](CC(=O)O)NC(=O)NO)C(N)=O ({CONHOH}-DF[NMeF]GLM-NH2) | 10 | 0.043 | > 10000 | > 10000 |  |
| COC(=O)C(=O)N[C@@H](CC(=O)O)C(=O)N[C@@H](Cc1ccccc1)C(=O)N(C)[C@@H](Cc1ccccc1)C(=O)NCC(=O)N[C@@H](CC(C)C)C(=O)N[C@@H](CCSC)C(N)=O (Methoxyoxalyl-DF[NMeF]GLM-NH2) | 4.1 | 0.0029 | > 10000 | > 10000 |  |
| CSCC[C@H](NC(=O)[C@H](CC(C)C)NC(=O)CNC(=O)[C@H](Cc1ccccc1)N(C)C(=O)[C@H](Cc1ccccc1)NC(=O)[C@@H](CCC(=O)O)NC(=O)CCC(=O)O)C(N)=O | 24 | 0.084 | > 10000 | > 10000 |  |
| CSCC[C@H](NC(=O)[C@H](CC(C)C)NC(=O)CNC(=O)[C@H](Cc1ccccc1)N(C)C(=O)[C@H](Cc1ccccc1)NC(=O)[C@@H](CCC(=O)O)NC(=O)[C@@H](CC(=O)O)NC(C)=O)C(N)=O | 68 | 0.017 | > 10000 | > 10000 |  |
| CSCC[C@H](NC(=O)[C@H](CC(C)C)NC(=O)CNC(=O)[C@H](Cc1ccccc1)N(C)C(=O)[C@H](Cc1ccccc1)NC(=O)[C@H](CC(=O)O)NC(N)=O)C(N)=O (X1-F[NMeF]GLM-NH2) | 39 | 0.013 | > 10000 | > 10000 |  |
| CSCC[C@H](NC(=O)[C@H](CC(C)C)NC(=O)CNC(=O)[C@H](Cc1c[nH]c2ccccc12)N(C)C(=O)[C@H](Cc1ccccc1)NC(=O)[C@H](CC(=O)O)NC(=O)CCC(=O)O)C(N)=O (Suc-DF[NMeW]GLM-NH2) | 123 | 0.033 | > 10000 | > 10000 |  |
| CSCC[C@H](NC(=O)[C@H](CC(C)C)NC(=O)CNC(=O)[C@H](Cc1ccc(O)cc1)N(C)C(=O)[C@H](Cc1ccccc1)NC(=O)[C@H](CC(=O)O)NC(=O)CCC(=O)O)C(N)=O (Suc-DF[NMeY]GLM-NH2) | 28 | 0.041 | > 10000 | > 10000 |  |
| CSCC[C@H](NC(=O)[C@H](CC(C)C)NC(=O)CNC(=O)[C@H](Cc1ccccc1)N(C)C(=O)[C@H](Cc1ccccc1)NC(=O)[C@H](CCC(=O)O)NC(=O)CCC(=O)O)C(N)=O | 6.1 | 0.03 | > 10000 | > 10000 | 2 |
| CSCC[C@H](NC(=O)[C@H](CC(C)C)NC(=O)CNC(=O)[C@H](CC(C)C)N(C)C(=O)[C@H](Cc1ccccc1)NC(=O)[C@H](CC(=O)O)NC(=O)CCC(=O)O)C(N)=O (Suc-DF[NMeL]GLM-NH2) | > 10000 |  |  |  |  |
| CSCC[C@H](NC(=O)[C@H](CC(C)C)NC(=O)CNC(=O)[C@H](Cc1ccccc1)N(C)C(=O)[C@H](Cc1ccccc1)NC(=O)[C@@H](CC(=O)O)NC(=O)[C@H](CC(=O)O)NC(C)=O)C(N)=O | 83 | 0.024 | > 10000 | > 10000 |  |
| CSCC[C@H](NC(=O)[C@H](CC(C)C)NC(=O)CNC(=O)[C@H](Cc1ccccc1)N(C)C(=O)[C@H](Cc1ccccc1)NC(=O)[C@H](CCCC(=O)O)NC(=O)CCC(=O)O)C(N)=O (Suc-[Aad]F[NMeF]GLM-NH2) | 9.9 | 0.019 | > 10000 | > 10000 | 2 |
| CSCC[C@H](NC(=O)[C@H](CC(C)C)NC(=O)CNC(=O)[C@H](Cc1ccccc1)N(C)C(=O)[C@H](Cc1ccccc1)NC(=O)[C@@H](CC(=O)O)NC(=O)CCC(=O)O)C(N)=O |  |  |  | > 10000 |  |
| CSCC[C@H](NC(=O)[C@H](CC(C)C)NC(=O)CNC(=O)[C@H](Cc1ccccc1)N(C)C(=O)[C@H](Cc1ccccc1)NC(=O)[C@@H](CC(=O)O)NC(=O)[C@@H](CC(=O)O)NC(C)=O)C(N)=O | 55 | 0.017 | > 10000 | > 10000 |  |
| CSCC[C@H](NC(=O)[C@H](CC(C)C)NC(=O)CNC(=O)[C@H](Cc1ccccc1)N(C)C(=O)[C@H](Cc1ccccc1)NC(=O)[C@H](CC(=O)O)NC(=O)[C@@H](N)CC(=O)O)C(N)=O (H-DDF[NMeF]GLM-NH2) | 175 | 0.063 | > 10000 | > 10000 |  |
| CSCC[C@H](NC(=O)[C@H](CC(C)C)NC(=O)CNC(=O)[C@H](Cc1ccccc1)N(C)C(=O)[C@H](Cc1ccccc1)NC(=O)[C@H](CC(=O)O)NS(N)(=O)=O)C(N)=O (X2-F[NMeF]GLM-NH2) | 5.6 | 0.0025 | > 10000 | > 10000 |  |
| CSCC[C@H](NC(=O)[C@H](CC(C)C)NC(=O)CNC(=O)[C@H](Cc1ccccc1)N(C)C(=O)[C@H](Cc1ccccc1)NC(=O)[C@H](CC(=O)O)NC(=O)NN)C(N)=O | 34 | 0.006 | > 10000 | > 10000 |  |
| CSCC[C@H](NC(=O)[C@H](CC(C)C)NC(=O)CNC(=O)[C@H](Cc1ccccc1)N(C)C(=O)[C@H](Cc1ccccc1)NC(=O)[C@H](CC(=O)O)NC(=O)[C@H](CC(=O)O)NC(C)=O)C(N)=O | 68 | 0.031 | > 10000 | > 10000 |  |
| CSCC[C@H](NC(=O)[C@H](CC(C)C)NC(=O)CNC(=O)[C@H](C(C)C)N(C)C(=O)[C@H](Cc1ccccc1)NC(=O)[C@H](CC(=O)O)NC(=O)CCC(=O)O)C(N)=O (Suc-DF[NMeV]GLM-NH2) | 104 | 0.064 | > 10000 | > 10000 |  |
| CSCC[C@H](NC(=O)[C@H](CC(C)C)NC(=O)CNC(=O)[C@H](Cc1ccccc1)N(C)C(=O)[C@H](Cc1ccccc1)NC(=O)[C@H](CC(=O)O)NC(=O)C(N)=O)C(N)=O (Oxamoyl-DF[NMeF]GLM-NH2) | 7.9 | 0.011 | > 10000 | > 10000 |  |
| CSCC[C@H](NC(=O)[C@H](CC(C)C)NC(=O)CNC(=O)[C@H](Cc1ccccc1)N(C)C(=O)[C@H](Cc1ccccc1)NC(=O)[C@H](CC(=O)O)NC(=O)[C@@H](CC(=O)O)NC(C)=O)C(N)=O | 73 | 0.018 | > 10000 | > 10000 |  |
| CSCC[C@H](NC(=O)[C@H](CC(C)C)NC(=O)CNC(=O)[C@H](Cc1ccccc1)N(C)C(=O)[C@H](Cc1ccccc1)NC(=O)[C@@H](CCC(=O)O)NC(=O)[C@H](CC(=O)O)NC(C)=O)C(N)=O | 37 | 0.018 | > 10000 | > 10000 |  |
